Where “and” joins values, the source holds several entries; their conditions need not be identical. Identical values can stand only once.
Experiments:
[1] = biological target: T1, NanoLuc-fusion full-length LC3B (Homo sapiens, UniProt Q9GZQ8); assay: NanoBRET cellular target engagement assay in HEK293T cells; format: cell-based; settings: NanoLuciferase-tagged LC3B, replicates
T1 construct: a fluorescent donor (in this case full length LC3A and LC3B); expressed in transfected cells; host or cells: HEK293T (ATCC; CRL-11268)
Method: (§1) NanoBRET cellular target engagement assay: Constructs contained the cDNA of full-length LC3A and LC3B cloned in frame with an N-terminal NanoLuc-fusion. Plasmids were transfected into HEK293T (ATCC; CRL-11268) cells using FuGENE HD (Promega, E2312) and proteins were allowed to express for 20 h. 10O5 and 8F20-based tracers were titrated to the protein as depicted in Supplementary Fig. 4d. For competition experiments, 1 µM of the tracers was pipetted into white 384-well plates (Greiner 781 207) using an Echo 550 acoustic dispenser (Labcyte) containing LC3A/LC3B expressing transfected cells at a density of 2.5 × 10^5 cells/mL in Opti-MEM without phenol red (Life Technologies). The system was allowed to equilibrate for 2 h at 37 °C and 5% CO2 prior to BRET measurements. To measure BRET, NanoBRET NanoGlo Substrate + Extracellular NanoLuc Inhibitor (Promega, N2540) was added as per the manufacturer’s protocol, and filtered luminescence was measured on a PHERAstar plate reader (BMG Labtech) equipped with a luminescence filter pair (450 nm BP filter (donor) and 610 nm LP filter (acceptor)). Competitive displacement data were then plotted using GraphPad Prism 9.3 software using a normalized 3-parameter curve fit. A detailed step-by-step protocol for this assay is described in Schwalm..

[2] = biological target: T2, NanoLuc-fusion full-length LC3A (Homo sapiens, UniProt Q9H492); assay: as above; format: cell-based; settings: NanoLuciferase-tagged LC3A, replicates
T2 construct: a fluorescent donor (in this case full length LC3A and LC3B); expressed in transfected cells; host or cells: HEK293T (ATCC; CRL-11268)
Method: as §1

LC3A = LC3A (Homo sapiens, UniProt Q9H492); assay: FP assay with 10O5- and 8F20-based dye-linked tracers 16 and 17; settings: for Fluorescence polarization, protein titration LC3A with tween / Fluorescence polarization, protein titration LC3A without tween: replicates; for Fluorescence polarization, displacement experiment LC3A: competing compound not named, duplicates
LC3B = LC3B (Homo sapiens, UniProt Q9GZQ8); assay: as above; settings: for Fluorescence polarization, protein titration LC3B with tween / Fluorescence polarization, protein titration LC3B without tween: replicates; for Fluorescence polarization, displacement experiment LC3B: competing compound not named, duplicates

- Fluorescence polarization, protein titration LC3A with tween (LC3A; Protein 0.1 µM): 17 and 27 and 22 and 26
- Fluorescence polarization, protein titration LC3A without tween (LC3A; Protein 0.1 µM): 141 and 128 and 122 and 148
- Fluorescence polarization, protein titration LC3A with tween (LC3A; Protein 0.25 µM): 23 and 27 (2×) and 19
- Fluorescence polarization, protein titration LC3A without tween (LC3A; Protein 0.25 µM): 184 and 161 and 131 and 173
- Fluorescence polarization, protein titration LC3A with tween (LC3A; Protein 0.5 µM): 22 and 18 and 24 and 23
- Fluorescence polarization, protein titration LC3A without tween (LC3A; Protein 0.5 µM): 214 and 168 and 152 and 148
- Fluorescence polarization, protein titration LC3A with tween (LC3A; Protein 1 µM): 36 and 25 and 24 and 27
- Fluorescence polarization, protein titration LC3A without tween (LC3A; Protein 1 µM): 178 and 174 and 173 and 142
- Fluorescence polarization, protein titration LC3A with tween (LC3A; Protein 5 µM): 23 and 19 and 21 and 25
- Fluorescence polarization, protein titration LC3A without tween (LC3A; Protein 5 µM): 196 and 185 and 203 and 124
- Fluorescence polarization, protein titration LC3A with tween (LC3A; Protein 10 µM): 18 and 19 and 20 and 25
- Fluorescence polarization, protein titration LC3A without tween (LC3A; Protein 10 µM): 234 and 191 and 193 and 156
- Fluorescence polarization, protein titration LC3A with tween (LC3A; Protein 25 µM): 18 and 17 and 26 and 19
- Fluorescence polarization, protein titration LC3A with tween (LC3A; Protein 50 µM): 29 and 17 and 28 and 31
- Fluorescence polarization, protein titration LC3A without tween (LC3A; Protein 50 µM): 218 and 219 and 177 and 165
- Fluorescence polarization, displacement experiment LC3A (LC3A; log Compound [M] -4.6031): 87.7778 and 70
- Fluorescence polarization, displacement experiment LC3A (LC3A; log Compound [M] -5.05839): 106.667 and 93.3333
- Fluorescence polarization, displacement experiment LC3A (LC3A; log Compound [M] -5.42608): 111.111 and 106.667
- Fluorescence polarization, displacement experiment LC3A (LC3A; log Compound [M] -5.727): 116.667 and 108.889
- Fluorescence polarization, displacement experiment LC3A (LC3A; log Compound [M] -6.20412): 80 and 87.7778
- Fluorescence polarization, displacement experiment LC3A (LC3A; log Compound [M] -6.6031): 94.4444 and 87.7778
- Fluorescence polarization, displacement experiment LC3A (LC3A; log Compound [M] -7.05839): 96.6667 and 90
- Fluorescence polarization, displacement experiment LC3A (LC3A; log Compound [M] -7.42608): 98.8889 and 88.8889
- Fluorescence polarization, displacement experiment LC3A (LC3A; log Compound [M] -7.727): 95.5556 and 110
- Fluorescence polarization, displacement experiment LC3A (LC3A; log Compound [M] -8.20412): 83.3333 and 101.111
- Fluorescence polarization, displacement experiment LC3A (LC3A; log Compound [M] -8.60189): 82.2222 and 100
- Fluorescence polarization, protein titration LC3B with tween (LC3B; Protein 0.1 µM): 14 and 24 and 21 and 25
- Fluorescence polarization, protein titration LC3B without tween (LC3B; Protein 0.1 µM): 191 and 155 and 157 and 173
- Fluorescence polarization, protein titration LC3B with tween (LC3B; Protein 0.25 µM): 30 and 20 (2×) and 28
- Fluorescence polarization, protein titration LC3B without tween (LC3B; Protein 0.25 µM): 187 and 186 and 175 and 167
- Fluorescence polarization, protein titration LC3B with tween (LC3B; Protein 0.5 µM): 23 and 18 and 30 and 16
- Fluorescence polarization, protein titration LC3B without tween (LC3B; Protein 0.5 µM): 191 and 197 and 195 and 171
- Fluorescence polarization, protein titration LC3B with tween (LC3B; Protein 1 µM): 18 and 20 and 17 and 25
- Fluorescence polarization, protein titration LC3B without tween (LC3B; Protein 1 µM): 223 and 203 and 198 and 217
- Fluorescence polarization, protein titration LC3B with tween (LC3B; Protein 5 µM): 24 (2×) and 19 and 17
- Fluorescence polarization, protein titration LC3B without tween (LC3B; Protein 5 µM): 203 and 175 and 213 and 191
- Fluorescence polarization, protein titration LC3B with tween (LC3B; Protein 10 µM): 26 and 22 and 24 and 28
- Fluorescence polarization, protein titration LC3B without tween (LC3B; Protein 10 µM): 222 and 196 and 207 and 175
- Fluorescence polarization, protein titration LC3B with tween (LC3B; Protein 25 µM): 25 and 29 and 18 and 31
- Fluorescence polarization, protein titration LC3B without tween (LC3B; Protein 25 µM): 233 and 224 and 191 and 192
- Fluorescence polarization, protein titration LC3B with tween (LC3B; Protein 50 µM): 16 and 30 and 20 and 21
- Fluorescence polarization, protein titration LC3B without tween (LC3B; Protein 50 µM): 207 and 200 and 195 and 162
- Fluorescence polarization, displacement experiment LC3B (LC3B; log Compound [M] -4.6031): 127.5 and 111.25
- Fluorescence polarization, displacement experiment LC3B (LC3B; log Compound [M] -5.05839): 100 and 118.75
- Fluorescence polarization, displacement experiment LC3B (LC3B; log Compound [M] -5.42608): 91.25 and 100.625
- Fluorescence polarization, displacement experiment LC3B (LC3B; log Compound [M] -5.727): 105 and 99.375
- Fluorescence polarization, displacement experiment LC3B (LC3B; log Compound [M] -6.20412): 76.875 and 78.125
- Fluorescence polarization, displacement experiment LC3B (LC3B; log Compound [M] -6.6031): 97.5 and 96.25
- Fluorescence polarization, displacement experiment LC3B (LC3B; log Compound [M] -7.05839): 95 and 98.75
- Fluorescence polarization, displacement experiment LC3B (LC3B; log Compound [M] -7.42608): 104.375 and 100
- Fluorescence polarization, displacement experiment LC3B (LC3B; log Compound [M] -7.727): 103.125 and 101.875
- Fluorescence polarization, displacement experiment LC3B (LC3B; log Compound [M] -8.20412): 91.25 and 75.625
- Fluorescence polarization, displacement experiment LC3B (LC3B; log Compound [M] -8.60189): 93.125 and 92.5
Compound: O=C(CCC1=[N+]2C(=Cc3ccc(-c4ccc[nH]4)n3[B-]2(F)F)C=C1)NCCCOCCOCCOCCCNC(=O)COc1c(Br)cc(C=C2C(=O)Nc3ccc(I)cc32)cc1Br (mixture of isomers) [Tracer 16]
- NanoBRET signal, tracer titration, LC3B ([1]; log tracer [M] -6.00109): 120.842 and 122.882 and 129.602 and 128.339
- NanoBRET signal, tracer titration, LC3B ([1]; log tracer [M] -6.30155): 120.38 and 105.763 and 124.568 and 118.005
- NanoBRET signal, tracer titration, LC3B ([1]; log tracer [M] -6.60241): 113.602 and 104.043 and 104.401 and 107.212
- NanoBRET signal, tracer titration, LC3B ([1]; log tracer [M] -6.90309): 98.6453 and 100.848 and 108.512 and 103.133
- NanoBRET signal, tracer titration, LC3B ([1]; log tracer [M] -7.30112): 89.1385 and 91.7873 and 88.9398 and 88.605
- NanoBRET signal, tracer titration, LC3B ([1]; log tracer [M] -7.60206): 87.7818 and 86.5962 and 85.9928 and 88.5055
- NanoBRET signal, tracer titration, LC3B ([1]; log tracer [M] -7.92154): 85.4561 and 91.534 and 90.0484 and 87.589
- NanoBRET signal, tracer titration, LC3B ([1]; log tracer [M] -8.22214): 87.644 and 91.0185 and 90.3527 and 95.3228
- NanoBRET signal, tracer titration, LC3B ([1]; log tracer [M] -8.52302): 88.7452 and 86.3664 and 89.605 and 108.381
- NanoBRET signal, tracer titration, LC3B ([1]; log tracer [M] -8.82391): 86.7783 and 81.6186 and 84.8664 and 94.2613
- NanoBRET signal, tracer titration, LC3B ([1]; log tracer [M] -9.00004): 83.8822 and 80.9003 and 85.0772 and 83.4655
- NanoBRET signal, tracer titration, LC3A ([2]; log tracer [M] -6.00109): 124.819 and 118.345 and 124.774 and 114.881
- NanoBRET signal, tracer titration, LC3A ([2]; log tracer [M] -6.30155): 112.067 and 104.028 and 114.067 and 103.426
- NanoBRET signal, tracer titration, LC3A ([2]; log tracer [M] -6.60241): 103.182 and 101.845 and 103.925 and 98.4465
- NanoBRET signal, tracer titration, LC3A ([2]; log tracer [M] -6.90309): 99.2084 and 97.2576 and 109.844 and 92.211
- NanoBRET signal, tracer titration, LC3A ([2]; log tracer [M] -7.30112): 98.651 and 96.9847 and 99.2163 and 92.7664
- NanoBRET signal, tracer titration, LC3A ([2]; log tracer [M] -7.60206): 97.6362 and 98.7001 and 95.2489 and 95.6855
- NanoBRET signal, tracer titration, LC3A ([2]; log tracer [M] -7.92154): 98.1785 and 98.6876 and 96.8478 and 95.5754
- NanoBRET signal, tracer titration, LC3A ([2]; log tracer [M] -8.22214): 94.3049 and 97.3658 and 91.0337 and 96.1748
- NanoBRET signal, tracer titration, LC3A ([2]; log tracer [M] -8.52302): 97.3466 and 97.3205 and 85.6953 and 96.3749
- NanoBRET signal, tracer titration, LC3A ([2]; log tracer [M] -8.82391): 89.2788 and 95.7646 and 83.5217 and 94.9158
- NanoBRET signal, tracer titration, LC3A ([2]; log tracer [M] -9.00004): 83.6211 and 94.4654 and 83.1958 and 94.9397

— PMC11589570, “Critical assessment of LC3/GABARAP ligands used for degrader development and ligandability of LC3/GABARAP binding pockets” (Nature Communications, 2024)
